Data from patent US4455312A.
Structures can show the parent of a compound that is named as a salt. Where two headings read alike, the source gives them in different places.

Assays:
pyrogenal fever = assay: Antipyretic effect in pyrogenal fever; conditions: rats
Experimental: Antipyretic effect of 2-(o-carboxyphenylamino)-6H-pyrimido(2,1-b)-quinazolone-6 and its derivatives were investigated in rats suffering from pyrogenal fever. Maximum decrease in the temperature (degrees) was determined.

[1] = tested on: threshold of pain sensitivity in contact-heat stimulation
carrageenin edema = tested on: carrageenin edema
Experimental: (§1) The growth of foot endema in the rat was registered in dynamics after each hour from the moment of subplantar administration of a stimulus during 5 hours. Percentage of inhibition of the foor emeda in the rat was calculated from the following formula: [formula] where
(§2) Vk is the volume of a control edematic foot minus the initial volume of the same foot prior to edema;
(§3) Vo is the volume of the tested edematic foot minus the initial volume of the same foot prior to edema.
A carrageenin edema was induced by subplantar administration in rats of 0.1 ml 1% solution of carrageenin (polysaccharide prepared from Iceland or pearl moss).

cotton granuloma = assay: whole plant or invertebrate
Source text: The term "cotton granuloma" means hereinafter the formation of a granular-fibrous tissue around cotton balls implanted into experimental animals.

[2] = tested on: formalin edema of a foot in the rat; conditions: for other symptoms of inflammation (hyperemia, painfulness) and formation of necrotic foci: formalin inflammation
Experimental: as §1, §2, §3

rats = assay: in vivo; conditions: rat, 168 h
Experimental: (§4) 2-(o-carboxyphenylamino)-6-H-pyrimido(2,1-b)-quinazolone-6 and its derivatives were tested for acute toxicity.
(§5) Acute toxicity of 2-(o-carboxyphenylamino)-6H-pyrimido(2,1-b)-quinazolone-6and its derivatives was determined in intra-abdominal and peroral administration; for cats in peroral administration. […] The statistical analysis of obtained data was carried out in accordance with the method of Litchfield, Wilcockson and Van der Waerden.

white mice = assay: in vivo; conditions: mouse, 168 h
Experimental: as §4, §5

rabbits = assay: Acute toxicity in rabbits (LD50); conditions: rabbit, in vivo, 10080 min
Experimental: as §4, §5

ovalbumin edema = assay: Ovalbumin edema of rat foot; type: in vivo, rats; conditions: 1/10 LD50 intra-abdominal
Experimental: An ovalbumin edema was induced by subplantar administration in rats of egg albumin (0.1 ml per foot). The edema developed very intensely, i.e. reached the maximum magnitude (191%) as soon as 1 hour following the injection of ovalbumin, and completely disappeared by the end of the day.
The preparations under studies were administered in the given investigations in a dose corresponding to 1/10LD50 for the rats in the intra-abdominal administration.

in vivo = assay: in vivo
Experimental: as §4, §5

Solubility = type: physicochemical
[3] = Acute toxicity in cats (LD50); conditions: cat, in vivo, po
Experimental: as §4, §5

[4] = Acute toxicity in rabbits (LD50); conditions: rabbit, in vivo, ip, rabbits, intra-abdominal, Van der Waerden
Experimental: as §4, §5

[5] = rat, in vivo, ip, hydrochloride
[6] = read-out: Percentage of inhibition (cotton granuloma)

Which results are given for `Cc1cccc(Nc2ccccc2C(=O)O)c1C` [Mephenamine acid, N--(2,3-dimethylphenyl) anthranilic acid]?
Antipyretic effect (maximum decrease in temperature) (pyrogenal fever; 70% of LD50): 1.2 °C; Increase in latent period of pain reaction in mice ([1]; 3.5 mg/kg): 18%; Increase in latent period of pain reaction in mice ([1]; 7.0 mg/kg): 36%; Increase in latent period of pain reaction in mice ([1]; 15 mg/kg): 43%; analgetic activity (in words) ([1]; contact-heat stimulation): possessed the most expressed analgetic effect; Percentage of inhibition (carrageenin edema) (carrageenin edema; 25 mg/kg intra-abdominal): 33%; Percentage of inhibition (carrageenin edema) (carrageenin edema; 50 mg/kg intra-abdominal): 44%; Percentage of inhibition (carrageenin edema) (carrageenin edema; 100 mg/kg intra-abdominal): 50%; antiproliferative effect (in words) (cotton granuloma; cotton granuloma): the most effective among the given preparations; Percentage of inhibition (formalin edema) ([2]; 9 mg/kg intra-abdominal): 22%; Percentage of inhibition (formalin edema) ([2]; 18 mg/kg intra-abdominal): 24%; Percentage of inhibition (formalin edema) ([2]; 36 mg/kg intra-abdominal): 31%; Percentage of inhibition (formalin edema) ([2]; 72 mg/kg intra-abdominal): 33%; other symptoms of inflammation (hyperemia, painfulness) and formation of necrotic foci [2]: almost noncharacteristic

For `O=C(O)c1ccccc1Nc1ccn2c(=O)c3ccccc3nc2n1` [2-(o-carboxyphenylamino)6H-pyrimido(2,1-b)-quinazolone-6 hydrochloride], which “Antipyretic effect (maximum decrease in temperature)” value (pyrogenal fever; 5% of LD50 (hydrochloride's dose not printed separately)) is on record?
The value was 1.4 °C.

What about the “Increase in latent period of pain reaction in mice” value (from here on “Increase in latent period”) ([1]; 52 mg/kg, hydrochloride) of the same compound?
Its value is 31%.

And the “Increase in latent period” value ([1]; 105 mg/kg, hydrochloride)?
The value was 52%.

And the “Increase in latent period” value ([1]; 157 mg/kg, hydrochloride)?
The value was 62%.

What about the “Therapeutic index (analgetic activity)” value ([1]; mouse, in vivo, hydrochloride) of the same compound?
Its value is 11.0.

And the “Percentage of inhibition (carrageenin edema)” value (carrageenin edema; 25 mg/kg intra-abdominal)?
The value was 12%.

And the “Percentage of inhibition (carrageenin edema)” value (carrageenin edema; 49 mg/kg intra-abdominal)?
Its value is 26%.

What about the “Percentage of inhibition (carrageenin edema)” value (carrageenin edema; 98 mg/kg intra-abdominal) of the same compound?
The value was 55%.

What about the “Therapeutic index (carrageenin edema)” value (carrageenin edema; [5]) of the same compound?
The value was 10.9.

What about the “Percentage of inhibition (cotton granuloma)” value (cotton granuloma; 48 mg/kg) of the same compound?
The value was 18%.

And the “Percentage of inhibition (cotton granuloma)” value (cotton granuloma; 95 mg/kg)?
The value was 24%.

And the “Percentage of inhibition (cotton granuloma)” value (cotton granuloma; 190 mg/kg)?
Its value is 52%.

And the “antiproliferative effect (in words)” value (cotton granuloma; cotton granuloma)?
Its value is “the most effective among the given preparations”.

And the “pharmacotherapeutic width of effect relative to mephenamine acid, sodium salicylate, and phenylbutazone” value (cotton granuloma; cotton granuloma)?
The value was “three times”.

And the “Therapeutic index (cotton granuloma)” value (cotton granuloma; in vivo, hydrochloride)?
The value was 22.3.

And the LD50 (rats; ip)?
Its LD50 is 980 mg/kg.

What about the LD50 (rats; po) of the same compound?
Its LD50 is 3800 mg/kg.

What about the LD50 (white mice; ip) of the same compound?
The LD50 was 1050 mg/kg.

And the LD50 (white mice; po)?
The LD50 was 3400 mg/kg.

What about the LD50 (rabbits; ip) of the same compound?
Its LD50 is 1750 mg/kg.

What about the LD50 (rabbits; po, hydrochloride) of the same compound?
Its LD50 is 500 mg/kg.

What about the “Percentage of inhibition (formalin edema)” value ([2]; 5 mg/kg intra-abdominal) of the same compound?
Its value is 31%.

And the “Percentage of inhibition (formalin edema)” value ([2]; 10 mg/kg intra-abdominal)?
The value was 50%.

What about the “Percentage of inhibition (formalin edema)” value ([2]; 49 mg/kg intra-abdominal) of the same compound?
Its value is 57%.

What about the “Percentage of inhibition (formalin edema)” value ([2]; 98 mg/kg intra-abdominal) of the same compound?
Its value is 71%.

And the “depression of formalin edema of a foot in the rat (in words)” value ([2]; comparison of preparations)?
The value was “the most actively depressed”.

What about the “Therapeutic index (formalin edema)” value [2, 5] of the same compound?
Its value is 61.2.

With `CCCCC1C(=O)N(c2ccccc2)N(c2ccccc2)C1=O` [Phenylbutazone, 1,2-diphenyl-4-butyl pyrazolidine-dion-3,5] as the compound, how does the “Increase in latent period” value ([1]; 25 mg/kg) read?
Its value is 8%.

What about the “Increase in latent period” value ([1]; 50 mg/kg) of the same compound?
Its value is 43%.

What about the “Increase in latent period” value ([1]; 100 mg/kg) of the same compound?
The value was 92%.

What about the “Percentage of inhibition (carrageenin edema)” value (carrageenin edema; 21 mg/kg intra-abdominal) of the same compound?
Its value is 27%.

What about the “Percentage of inhibition (carrageenin edema)” value (carrageenin edema; 42 mg/kg intra-abdominal) of the same compound?
The value was 44%.

And the “Percentage of inhibition (carrageenin edema)” value (carrageenin edema; 84 mg/kg intra-abdominal)?
Its value is 51%.

What about the “antiexudative / antiinflammatory effect in ovalbumin edema (in words)” value (ovalbumin edema) of the same compound?
Its value is “did not produce antiedematic effect”.

What about the “Percentage of inhibition (formalin edema)” value ([2]; 21 mg/kg intra-abdominal) of the same compound?
The value was 17%.

And the “Percentage of inhibition (formalin edema)” value ([2]; 42 mg/kg intra-abdominal)?
Its value is 40%.

What about the “Percentage of inhibition (formalin edema)” value ([2]; 82 mg/kg intra-abdominal) of the same compound?
Its value is 51%.

Which “Increase in latent period” value ([1]; 32 mg/kg) does the source give for `O=C(O)c1ccccc1O` [Sodium salicylate, 6-oxybenzoic acid, sodium salt] here?
The value was 28%.

What about the “Increase in latent period” value ([1]; 65 mg/kg) of the same compound?
Its value is 38%.

What about the “Increase in latent period” value ([1]; 130 mg/kg) of the same compound?
The value was 59%.

And the “Therapeutic index (analgetic activity)” value ([1]; LD50/ED50, contact-heat stimulation)?
The value was 5.9.

And the “Percentage of inhibition (carrageenin edema)” value (carrageenin edema; 65 mg/kg intra-abdominal)?
The value was 14%.

What about the “Percentage of inhibition (carrageenin edema)” value (carrageenin edema; 90 mg/kg intra-abdominal) of the same compound?
The value was 32%.

What about the “Percentage of inhibition (carrageenin edema)” value (carrageenin edema; 130 mg/kg intra-abdominal) of the same compound?
Its value is 56%.

And the “Therapeutic index (carrageenin edema)” value (carrageenin edema; LD50/ED50, intra-abdominal)?
The value was 5.6.

What about the “Therapeutic index (cotton granuloma)” value (cotton granuloma; LD50/ED50) of the same compound?
The value was 7.27.

What about the inhibition at 60 mg/kg (cotton granuloma; [6]) of the same compound?
The inhibition at 60 mg/kg was 8%.

And the inhibition at 80 mg/kg (cotton granuloma; [6])?
Its inhibition at 80 mg/kg is 20%.

And the inhibition at 160 mg/kg (cotton granuloma; [6])?
The inhibition at 160 mg/kg was 36%.

And the inhibition at 240 mg/kg (cotton granuloma; [6])?
Its inhibition at 240 mg/kg is 52%.

What about the “Percentage of inhibition (formalin edema)” value ([2]; 65 mg/kg intra-abdominal) of the same compound?
The value was 14%.

What about the “Percentage of inhibition (formalin edema)” value ([2]; 130 mg/kg intra-abdominal) of the same compound?
The value was 24%.

What about the “Percentage of inhibition (formalin edema)” value ([2]; 260 mg/kg intra-abdominal) of the same compound?
The value was 41%.

And the “Therapeutic index (formalin edema)” value ([2]; LD50/ED50, intra-abdominal)?
The value was 1.8.

And the “other symptoms of inflammation (hyperemia, painfulness) and formation of necrotic foci” value [2]?
The value was “almost noncharacteristic”.

Which LD50 at 168 h (in vivo; mouse, ip) does the source give for `COC(=O)c1ccccc1Nc1ccn2c(=O)c3ccccc3nc2n1` here?
The LD50 at 168 h was 1160 mg/kg.

Which “Antipyretic effect (maximum decrease in temperature)” value (pyrogenal fever; 70% of LD50) does the source give for `CC(C)Cc1ccc(C(C)C(=O)O)cc1` (centres unmarked) [Bruphen, 2-(para-isobutylphenyl)-propionic acid] here?
Its value is 1.3 °C.

With `COc1ccc2c(c1)c(CC(=O)O)c(C)n2C(=O)c1ccc(Cl)cc1` [Indomethacin, 1-(para-chlorobenzoyl)5-methoxy-2-methyl-indole-3-acetic acid] as the compound, how does the “Antipyretic effect (maximum decrease in temperature)” value (pyrogenal fever; 70% of LD50) read?
Its value is 0.7 °C.

Which LD50 at 168 h (in vivo; mouse, ip) does the source give for `CNC(=O)c1ccccc1Nc1ccn2c(=O)c3ccccc3nc2n1` [2-(o-methylcarbamidephenylamino)-6H-pyrimido(2,1-b)-quinazolone-6] here?
The LD50 at 168 h was 3000 mg/kg.

Which “solubility (in words)” value (Solubility) does the source give for `O=C(O)c1ccccc1Nc1ccn2c(=O)c3ccccc3nc2n1` [ethanol ammonium salt of 2-(o-carboxyphenylamino)-6H-pyrimid] here?
The value was “soluble in water”.

What does the source list for `O=C(O)c1ccccc1Nc1ccn2c(=O)c3ccccc3nc2n1`?
LD50 at 168 h [3]: 5000 mg/kg; LD50 at 168 h (in vivo; mouse, ip): 1050 mg/kg; LD50 at 168 h (in vivo; mouse, po): 3400 mg/kg; LD50 at 168 h (in vivo; rat, ip): 980 mg/kg; LD50 at 168 h (in vivo; rat, po): 3800 mg/kg; LD50 at 168 h [4]: 1750 mg/kg
